Results on 3 compounds are retold here after US10300000B2, “Inhibition of melanogenesis by chemically modified curcumins” (The Research Foundation for The State University of New York, priority 2016, dated 2019).

Experiment [1] concerns αMSH-stimulated B16F10 cells. The experiment is described as follows: Melanin content in αMSH-stimulated B16F10 cells. The class given is cell-based, mouse. Further details: unit of the concentration uncertain. To be noted: 48 hours. The protocol: (§1) B16F10 cells were seeded at 1×10^5 cells/well in 12-well plates and incubated for 24 hours. The test compounds were then added in presence or absence of αMSH (100 nM), and further incubated for another 48 hours. For evaluation of melanin content, cells were trypsinized, washed in PBS and then 250 μL of 1N NaOH was added and heated to 70° C. to solubilize melanin. The aliquots were then transferred to a 96-well plate and absorbance was read at 475 nm using microplate reader. The absorbance of melanin was normalized by total protein contents and reported as % of control.

Experiment [2] relates to intracellular ROS in B16F10 cells. Put plainly: Intracellular ROS assay (H2DCFDA) in B16F10 cells. The class given is cell-based, mouse. To be noted: B16F10, 25 μM, 48 hours. The protocol: Intracellular ROS generation was quantified using 2′,7′-dichlorodihydrofluorescein diacetate (H2DCFDA), a non-fluorescent dye which is trapped intracellularly by cleavage by intracellular esterases after reaction with reactive oxygen species (ROS); only the product, DCF, is fluorescent. For measuring intracellular ROS, B16F10 cells were seeded in 24 well plates at 4×10^4 cells/well. After 24 hours, media was aspirated and PC, THC and CMCs were added to the wells at different concentrations and further incubated for 48 hours. At the end of the incubations, the media was aspirated and cells were washed with PBS. DCFDA (Molecular Probes) was dissolved in DMSO to make 10 mM stock. DCFDA dye working stock (50 μM) was prepared by diluting the stock in DMEM (serum-free, phenol-red free and sodium pyruvate free) media and added to cells and further incubated for 45 minutes at 37° C. The cells were then washed with DPBS and fluorescence was read in bottom read mode, using a fluorescence microplate reader (Gemini EM Spectramax, Molecular Devices) set to excitation and emission wavelengths of 485 nm and 535 nm, respectively. Data was expressed as relative fluorescence % of treated vs. control.

Experiment [3] relates to B16F10 mouse melanoma cells. The class given is cell-based. To be noted: B16F10, 5 μM, 48 hours, MTS. The protocol:
In order to test the four CMCs (CMC2.14, CMC2.24, CMC2.5 and CMC2.23) alongside PC and THC, for their effects on melanin content, we first screened their nontoxic concentrations using MTS cytotoxicity (Promega CellTiter Aqueous One) assay. MTS is a tetrazolium salt which is reduced to purple colored formazan upon reaction with mitochondrial dehydrogenases. Briefly, B16F10 cells were seeded at 4×10^3 cells/well in 96-well plates for 24 hrs. […] Controls were treated with 0.16% DMSO. At the end of 48 hours, medium was aspirated and replaced by 100 μl of fresh media. MTS (20 μl) was added and incubated for 40 minutes and absorbance read at 490 nm using a Versamax® microplate reader. Cell viability was calculated from the absorbance values relative to control groups and expressed in %.

Experiment [4] has as its system αMSH-stimulated B16F10 cells. Put plainly: Melanin content in αMSH-stimulated B16F10 cells. The class given is cell-based, mouse. Here is the method: as §1

Consider `COC(=O)C(C(=O)C=Cc1ccc(O)c(OC)c1)C(=O)C=Cc1ccc(O)c(OC)c1` (centres unmarked) [CMC2.5, 4-methoxycarbonyl curcumin], for which the reduction of melanin in experiment [1] (αMSH-stimulated B16F10, 20 (unit uncertain) as printed) stood at 36%; in experiment [1] (αMSH-stimulated B16F10, 25 (unit uncertain) as printed), 42%. Besides, the “reduction of intracellular ROS” value in experiment [2] was 23%.

`COC(=O)C(C(=O)/C=C/c1ccc(O)cc1)C(=O)/C=C/c1ccc(O)cc1` [CMC2.14]: in experiment [3], the “increase of cell proliferation” value stood at 26.2%.

As for `COc1cc(/C=C/C(=O)C(C(=O)/C=C/c2ccc(O)c(OC)c2)C(=O)Nc2ccccc2)ccc1O` [CMC2.23], in experiment [4], the “lightening of cell pellets” value is on record as “visible lightening”.
